Experimental data reported in a melting point compilation (Tetko et al.; mined from patent text by program, amines drawn as free bases though some values may be those of a salt).

Compound | melting point [°C]
CN(C(=O)c1ccc2nonc2c1)C1CCN(C(=O)OC(C)(C)C)CC1 | 98 to 100
CN(C)C(=O)c1cccnc1S(N)(=O)=O | 188 to 191
Cc1ccc(S(=O)(=O)C2=CC3CCC2N3C(=O)OC(C)(C)C)cc1 (stereo not given) | 144 to 147
Cc1ccc(S(=O)(=O)OC(C#N)(c2ccccc2)C(F)(F)F)cc1 (stereo not given) | 70
CC(C)n1nc(-c2ccc(O)cc2)c2cccc(C(F)(F)F)c21 | 156 to 157
OC1c2ccc(Cl)cc2SC1Cn1ccnc1 (stereo not given) | 164 to 165
C=Cn1cc(C(=O)OCC)c(=O)c2cc(F)c(Cl)cc21 | 146 to 149
CC1(C)CC(SCc2cc3c(cc2Cl)OCO3)=NO1 | 88
FC(F)(F)c1ccc(-c2ccc3[nH]c4c(ccc5cc[nH]c54)c3c2)cc1 | > 250
ClCc1coc(-c2cc3c(s2)CCCC3)n1 | 102 to 103
Cc1ccnc2c1C(=O)CC(c1ccc(F)cc1F)C2 (stereo not given) | 106 to 107
Cc1sc(-c2ccccc2F)nc1O | 159 to 160
Cc1ccc(S(=O)(=O)N(C)F)cc1 | 42 to 44
Nc1cccc(P(=O)(O)O)c1 | 300
CC(C)(C)OC(=O)NCCOc1noc2ccccc12 | 106 to 107
CN(C)CCSC1=Nc2ccc(Br)cc2C(c2ccccc2F)=NC1 | 105 to 108
NC(=O)c1c(F)ccc(OCc2nc3ccc(OC(F)(F)F)cc3s2)c1F | 174 to 175
COC(=O)Cn1c(C(=O)O)cc2ccccc21 | 190
COc1ccc2c(c1)/C(=N\NC(N)=O)C(=O)N2CCN(C(C)C)C(C)C | 157 to 159
Cc1ccc(C(C)(CCCCC(=O)CCCCC(C)(C(=O)O)c2ccc(C)cc2)C(=O)O)cc1 (stereo not given) | 48 to 50
COC(=O)c1c(CC#N)ncn1C1CCCCO1 (stereo not given) | 82 to 83

Compound | melting point [°C]
O=c1oc2ccccc2c2ccc(O)c(O)c12 | 185 to 187
CC(=O)O[C@@H]1NC(=O)[C@H]1NC(=O)OCc1ccccc1 | 110 to 113
Fc1cc(Cl)c(OC2CCCC2)cc1-n1nc2c(c1Cl)CCCC2 | 88 to 91
CC(C)(C)c1cc(/C=C/c2nnc(N)o2)cc(C(C)(C)C)c1O | 221
NSc1nc(N)nc2c1ncn2C1OC(CO)C(O)C1O (stereo not given) | 190 to 192
COc1ccc(C(Cl)=C(C#N)c2ccc(OC)cc2)cc1 | 140 to 142
C#CCCCc1c2c3c(nc(N)c2nn1CCC)CCCC3 | 167 to 169
COc1cccc2c(CCCN(CC3CC3)C3COc4c(F)ccc(C(N)=O)c4C3)coc12 (stereo not given) | 125 to 132
Cn1cccc1-c1cc(O)c2ncccc2c1O | 142 to 143
COc1ccc(-c2c(C(=O)O)c(=O)[nH]c3ccc(C)cc23)cc1OC | 240 to 241
COc1ccc2c(C)c3c(c(-c4ccc(F)cc4)c2c1)CNC3=O | 236 to 238
O=C1c2c(Cl)cccc2-n2cnc(-c3noc(CN(Cc4ccccc4)Cc4ccccc4)n3)c2[C@@H]2CCCN12 | 107 to 109
CC(N)C(=O)Nc1ccc([N+](=O)[O-])cc1C(=O)c1ccccc1Cl (single isomer, unassigned; (+)) | 132
Cc1coc(N(CCCC(=O)O)C(=O)C(C)C)n1 | 81 to 82
CC(CCNC(=O)C(C#N)=Cc1cc(O)c(O)c(O)c1)NC(=O)C(C#N)=Cc1cc(O)c(O)c(O)c1 (stereo not given) | > 300
CC(C)(C)OC(=O)N[C@@H](CO)C(=O)NCCO | 74 to 76
CCOC(=O)c1cn(C2CC2)c2c(F)c(N3CCNC(C)C3)c(F)c(N)c2c1=O (stereo not given) | 132 to 134
CCn1cc(C(=O)O)c(=O)c2cc(F)c(N3CCC(NCC(C)=O)C3)nc21 (stereo not given) | 287 to 289
CCCC(=O)C1=C(O)CC(c2c(C)c(C)c(C)c(C)c2S(C)(=O)=O)CC1=O (stereo not given) | 132
O=S(=O)(c1ccc(Br)cc1)n1ccc2ccccc21 | 106
Cc1nnc(-c2ncn3c2[C@@H]2CCCN2C(=O)c2c(Cl)cccc2-3)o1 | 253 to 254

Compound | melting point [°C]
CNc1ccc(NC(=O)c2cc3cc(F)ccc3n2Cc2cccc(F)c2)cn1 | 225 to 227
CCCn1ccn(-c2ccc(N3CCN(c4ccc(OC)cc4)CC3)cc2)c1=O | 184
COC1(OC)SC=C(C)NC1=O | 86 to 88
COc1ccc(C(=O)N2CC[C@@H](O)C2=O)cc1 | 121 to 122
O=C(Nc1nc(-c2ccoc2)c(C(=O)C2CCOCC2)s1)c1ccnc(Cl)c1 | 202 to 204
CN1C2CCC1CC(O)(c1ccc(C(F)(F)F)cc1)C2 (stereo not given) | 189 to 190
CCCCOC1C=CC(=O)N1S(=O)(=O)c1cccc(C(F)(F)F)c1 (stereo not given) | 42 to 43
CC(=O)c1ccc2c(c1)C(c1ccccc1F)=NC(C)(C)C(=O)N2 | 59
O=C(O)CC[C@H](NC(=O)Nc1ccc(N(CCCl)CCCl)cc1)C(=O)O | 116 to 118
O=C(O)c1ccc2cc(Cl)ccn2c1=O | > 250
CC1(C)CCOC1=C(Sc1ccc(Cl)cc1)n1ccnc1 | 134
CC(C)(C)CCCCCCCCCCCC(=O)O | 37 to 39
COc1ccc(/C=C(/C#N)c2c(F)cccc2F)cc1OC1CCCC1 | 79.1 to 81
CC(=O)Nc1nc(CCc2ccc(NC3=NCCS3)cc2)cs1 | 218 to 220
Cc1c(F)c(Br)cc(Br)c1C(=O)O | 144 to 146
COC(=O)CCn1nc2ccccn2c1=O | 95 to 99
O=C1Nc2ccccc2OCC1N1C(=O)c2ccccc2C1=O (stereo not given) | 188 to 193
Cn1nc(-c2cc(C=C(Cl)C(=O)O)c(Cl)cc2F)c(Cl)c1C(F)(F)F | 195 to 196
COc1ccccc1-c1ccc2c(c1)CC[C@H]1N(C)C(=O)CC[C@]21C | 152 to 156
O=S(=O)(Nc1cc(C(F)(F)F)ccc1Oc1ccccc1CO)c1cc(C(F)(F)F)cc(C(F)(F)F)c1 | 123 to 125
NC1=CC(=O)CC(c2c(Cl)cccc2Cl)C1 (stereo not given) | 216 to 217

Other lines, results leading:

melting point [°C] | Compound
> 285 | COC(=O)c1ccc2cc(OCC(=O)O)ccc2c1
191 to 192 | O=C(N[C@H](Cc1ccc(C(F)(F)F)cc1)[C@@H](O)c1ccc(F)cc1)c1cccc2cccc(Br)c12 (racemic)
170 to 185 | O=C(O)c1ccccc1-n1c(-c2ccccc2)cc2c1-c1ccccc1CC2
60 | Cn1ccc2c(C(=O)c3ccccc3OCCCCl)cccc21
247 to 249 | Cc1cccc(-c2nc3cccnn3c2-c2ccnc(NC(=O)Nc3ccccc3)c2)c1
138 | O=C(c1ccc(F)cc1)c1ccc2nc(Cl)nc(-c3cccc(Cl)c3)c2c1
191 to 192 | CC(C)(C)C(NC(=O)Cc1ccc2c(c1)OCCO2)NC(=NC#N)Nc1cccc2ncccc12 (stereo not given)
193 to 194 | COc1ccc(C(=O)Nc2cccc3cnccc23)cc1OC
95.5 to 97.5 | CCCc1c(OCCCCCOc2ccc3c(c2CCC)OC(C(=O)O)CC3O)ccc(C(C)=O)c1O (stereo not given)
138 to 139 | CCOC(CNC(=O)N(N=Cc1ccccc1)c1cc(Cl)c(Cc2ccc(Cl)cc2)c(Cl)c1)OCC
97 to 100 | C=CCNc1cnc(-c2ccccc2)c(-c2ccccc2)n1
140 to 145 | CCc1ccc(C(=O)CCCCCN2CCC(CNC(=O)c3cc(Cl)c(N)cc3OC)CC2)cc1
105 | CS(=O)(=O)NCC(=O)N[C@@H]1CN2C(=O)N(c3cc(Cl)nc(Cl)c3)C(=O)[C@@]2(Cc2ccc(OC(F)(F)F)cc2)C1
120 to 121 | Cc1oc(-c2ccccc2)nc1COc1cccc(CSc2cccc(CCC(=O)O)c2)c1
155 | CCOC(=O)CSc1nc(Nc2ccc(OC)c(Cl)c2)cc(-c2ccccc2)n1
213 to 214 | Cc1ncn(-c2ccccc2CNC(=O)c2nc3n(c(=O)c2OCc2ccccc2)CCOC3(C)C)n1
165 | Cc1c(F)cccc1Cc1c(-c2ccccc2)c2cc(O)cnn2c1C(=O)N1CCN(C(=O)OC(C)(C)C)CC1
155 to 157 | CCCCc1ccc(CCCCS(=O)(=O)Cc2cccc(/C=C/c3cccc(NC(=O)CC(CC)(CC)C(=O)O)c3)n2)cc1
178 to 180 | Cc1ccn(Cc2ccc(Cl)c(Cl)c2)c(=O)c1C#N

melting point [°C] | Compound
111 to 113 | CCCc1c(-c2ccncc2)[nH]c(-c2ccncc2)c1C(C)=O
194 to 196 | Cc1cccc(-n2c(-c3cc(-c4ccccc4)c(N4CCOCC4)s3)nc3ccccc3c2=O)c1
155 to 157 | Cc1cccc(N2CCN(CCc3nc4cc(Br)c5ccccc5c4n3C)CC2)c1
148 to 149 | C=CCOc1ccc(OCC)c2c1S(=O)(=O)N(Cc1ccccc1)C2=O
97 to 98 | Cc1cc(Cl)ccc1Cn1nc(OC(C)C)cc1CCCOc1ncccc1CC(=O)O
72 to 73 | CN(CCc1ccc2c(c1)oc(=O)n2C)Cc1ccccc1
125 to 130 | COc1ccc(Cl)c(Oc2c(Cl)nc(C)nc2Cl)c1
122 to 123 | O=C(Nc1ccc(-n2nc(C(F)(F)F)cc2OC(F)F)cc1)c1ccccc1Cl
187 | CCOC(=O)CCNC(=O)CNC(=O)c1csc(NC(=O)NCc2ccccc2)n1
280 to 283 | N#Cc1c(N)nc2ccc([N+](=O)[O-])cc2c1NCc1ccccc1
176 to 177 | COc1cccc(Cn2cc3c(-c4cccc(C(=O)NCCC#N)c4)cccc3n2)c1
134 to 136 | CC(=O)N(C#N)c1ccc(Cc2ccc(N(C#N)C(C)=O)cc2)cc1
96 to 98 | CC(C)(O)P(=O)(c1ccccc1)c1ccccc1
218 to 219 | CCOC(=O)[C@H](Cc1ccc(-c2c(C)n(C)c(=O)n(C)c2=O)cc1)NC(=O)c1c(F)cccc1F
68 to 70 | CCCN(c1ccncc1Cl)n1cc(C)c2ccccc21
111 to 112 | Cc1cc(C(F)(F)F)cc(Oc2ccc(CCNc3ncnc4scnc34)cc2)n1
97 to 99 | CCOC(=O)C1=C(C)N=C(SCc2ccc(OC)cc2)N(C(=O)OC(C)C)C1c1cccc(Cl)c1Cl (stereo not given)
159 to 160 | CCOCCc1c(-c2ccccc2)nc(Br)n2ncnc12
